Results as given in ChEMBL document CHEMBL5724914, “Linking interpersonal differences in gut microbiota composition and drug biotransformation activity” (2024).

What was measured:
[1] = human gut metagenome, 24 h, 2 µM
[2] = human gut metagenome, 24 h, 2 µM; remark: listed apart in the source
[3] = human gut metagenome, 24 h, 2 µM; remark: listed apart in the source
[4] = (§1) The drug is tested on Z-016 corresponding to mouse gut metagenome with ENA study accession number: PRJEB37062 and ENA sample accession number: ERS12561815 for biotransformation under anaerobic condition. The drug concentrations were measured over 9 timepoints collected between 0 and 24 hours of incubation by liquid-chromatography-coupled mass spectrometry (LC–MS); details: 2 µM
[5] = as §1, with “WLS-090” for “Z-016”, “human” for “mouse”, “ERS12561753” for “ERS12561815”; details: 2 µM
[6] = as §1, with “Z-023” for “Z-016”, “to” for “to mouse gut”, “ERS12561822” for “ERS12561815”; details: 2 µM
[7] = as §1, with “WLS-052” for “Z-016”, “human” for “mouse”, “ERS12561747” for “ERS12561815”; details: 2 µM
[8] = as §1, with “Z-009” for “Z-016”, “pig” for “mouse”, “ERS12561809” for “ERS12561815”; details: 2 µM
[9] = as §1, with “Z-008” for “Z-016”, “to” for “to mouse gut”, “ERS12561808” for “ERS12561815”; details: 2 µM
[10] = human gut metagenome, 24 h, 2 µM; remark: listed apart in the source
[11] = human gut metagenome, 24 h, 2 µM; remark: listed apart in the source
[12] = human gut metagenome, 24 h, 2 µM; remark: listed apart in the source
[13] = as §1, with “WLS-039” for “Z-016”, “human” for “mouse”, “ERS12561746” for “ERS12561815”; details: 2 µM
[14] = as §1, with “WLS-069” for “Z-016”, “human” for “mouse”, “ERS12561748” for “ERS12561815”; details: 2 µM
[15] = human gut metagenome, 24 h, 2 µM; remark: listed apart in the source
[16] = as §1, with “Z-030” for “Z-016”, “ERS12561829” for “ERS12561815”; details: 2 µM
[17] = as §1, with “WLS-220” for “Z-016”, “human” for “mouse”, “ERS12561769” for “ERS12561815”; details: 2 µM
[18] = as §1, with “WLS-310” for “Z-016”, “human” for “mouse”, “ERS12561785” for “ERS12561815”; details: 2 µM
[19] = as §1, with “Z-017” for “Z-016”, “ERS12561816” for “ERS12561815”; details: 2 µM
[20] = human gut metagenome, 24 h, 2 µM; remark: listed apart in the source
Also: call rule not given here.

## CC(C)NCC(O)COc1ccc(COCCOC(C)C)cc1.CC(C)NCC(O)COc1ccc(COCCOC(C)C)cc1.O=C(O)/C=C/C(=O)O (stereo not given) [BISOPROLOL FUMARATE]
[1]
  Bacterial Biotransformation: Compound NOT metabolized
[2]
  Bacterial Biotransformation: Compound NOT metabolized
[3]
  Bacterial Biotransformation: Compound NOT metabolized
[4]
  Bacterial Biotransformation: Compound NOT metabolized
[5]
  Bacterial Biotransformation: Compound metabolized
[6]
  Bacterial Biotransformation: Compound metabolized
[7]
  Bacterial Biotransformation: Compound NOT metabolized
[8]
  Bacterial Biotransformation: Compound metabolized
[9]
  Bacterial Biotransformation: Compound NOT metabolized
[10]
  Bacterial Biotransformation: Compound metabolized
[11]
  Bacterial Biotransformation: Compound NOT metabolized
[12]
  Bacterial Biotransformation: Compound NOT metabolized
[13]
  Bacterial Biotransformation: Compound NOT metabolized
[14]
  Bacterial Biotransformation: Compound NOT metabolized
[15]
  Bacterial Biotransformation: Compound metabolized
[16]
  Bacterial Biotransformation: Compound NOT metabolized
[17]
  Bacterial Biotransformation: Compound metabolized
[18]
  Bacterial Biotransformation: Compound NOT metabolized
[19]
  Bacterial Biotransformation: Compound NOT metabolized
[20]
  Bacterial Biotransformation: Compound metabolized

## CCCCCOC(=O)Nc1nc(=O)n([C@@H]2O[C@H](C)[C@@H](O)[C@H]2O)cc1F [CAPECITABINE]
[1]
  Bacterial Biotransformation: Compound metabolized
[2]
  Bacterial Biotransformation: Compound metabolized
[3]
  Bacterial Biotransformation: Compound metabolized
[4]
  Bacterial Biotransformation: Compound metabolized
[5]
  Bacterial Biotransformation: Compound metabolized
[6]
  Bacterial Biotransformation: Compound metabolized
[7]
  Bacterial Biotransformation: Compound metabolized
[8]
  Bacterial Biotransformation: Compound metabolized
[9]
  Bacterial Biotransformation: Compound NOT metabolized
[10]
  Bacterial Biotransformation: Compound metabolized
[11]
  Bacterial Biotransformation: Compound metabolized
[12]
  Bacterial Biotransformation: Compound metabolized
[13]
  Bacterial Biotransformation: Compound metabolized
[14]
  Bacterial Biotransformation: Compound metabolized
[15]
  Bacterial Biotransformation: Compound metabolized
[16]
  Bacterial Biotransformation: Compound metabolized
[17]
  Bacterial Biotransformation: Compound metabolized
[18]
  Bacterial Biotransformation: Compound metabolized
[19]
  Bacterial Biotransformation: Compound metabolized
[20]
  Bacterial Biotransformation: Compound metabolized

## Cc1ccc(-c2cc(C(F)(F)F)nn2-c2ccc(S(N)(=O)=O)cc2)cc1 [CELECOXIB]
[1]
  Bacterial Biotransformation: Compound NOT metabolized
[2]
  Bacterial Biotransformation: Compound metabolized
[3]
  Bacterial Biotransformation: Compound NOT metabolized
[4]
  Bacterial Biotransformation: Compound NOT metabolized
[5]
  Bacterial Biotransformation: Compound NOT metabolized
[6]
  Bacterial Biotransformation: Compound NOT metabolized
[7]
  Bacterial Biotransformation: Compound metabolized
[8]
  Bacterial Biotransformation: Compound NOT metabolized
[9]
  Bacterial Biotransformation: Compound NOT metabolized
[10]
  Bacterial Biotransformation: Compound NOT metabolized
[11]
  Bacterial Biotransformation: Compound NOT metabolized
[12]
  Bacterial Biotransformation: Compound NOT metabolized
[13]
  Bacterial Biotransformation: Compound metabolized
[14]
  Bacterial Biotransformation: Compound metabolized
[15]
  Bacterial Biotransformation: Compound metabolized
[16]
  Bacterial Biotransformation: Compound NOT metabolized
[17]
  Bacterial Biotransformation: Compound metabolized
[18]
  Bacterial Biotransformation: Compound NOT metabolized
[19]
  Bacterial Biotransformation: Compound NOT metabolized
[20]
  Bacterial Biotransformation: Compound NOT metabolized

## Clc1ccc(Cn2c(CN3CCCC3)nc3ccccc32)cc1 [CLEMIZOLE]
[1]
  Bacterial Biotransformation: Compound metabolized
[2]
  Bacterial Biotransformation: Compound metabolized
[3]
  Bacterial Biotransformation: Compound metabolized
[4]
  Bacterial Biotransformation: Compound NOT metabolized
[5]
  Bacterial Biotransformation: Compound metabolized
[6]
  Bacterial Biotransformation: Compound metabolized
[7]
  Bacterial Biotransformation: Compound metabolized
[8]
  Bacterial Biotransformation: Compound NOT metabolized
[9]
  Bacterial Biotransformation: Compound NOT metabolized
[10]
  Bacterial Biotransformation: Compound NOT metabolized
[11]
  Bacterial Biotransformation: Compound metabolized
[12]
  Bacterial Biotransformation: Compound NOT metabolized
[13]
  Bacterial Biotransformation: Compound metabolized
[14]
  Bacterial Biotransformation: Compound metabolized
[15]
  Bacterial Biotransformation: Compound metabolized
[16]
  Bacterial Biotransformation: Compound NOT metabolized
[17]
  Bacterial Biotransformation: Compound NOT metabolized
[18]
  Bacterial Biotransformation: Compound metabolized
[19]
  Bacterial Biotransformation: Compound NOT metabolized
[20]
  Bacterial Biotransformation: Compound metabolized

## CN1CCN(C2=Nc3cc(Cl)ccc3Nc3ccccc32)CC1 [CLOZAPINE]
[1]
  Bacterial Biotransformation: Compound NOT metabolized
[2]
  Bacterial Biotransformation: Compound NOT metabolized
[3]
  Bacterial Biotransformation: Compound metabolized
[4]
  Bacterial Biotransformation: Compound NOT metabolized
[5]
  Bacterial Biotransformation: Compound metabolized
[6]
  Bacterial Biotransformation: Compound metabolized
[7]
  Bacterial Biotransformation: Compound NOT metabolized
[8]
  Bacterial Biotransformation: Compound NOT metabolized
[9]
  Bacterial Biotransformation: Compound NOT metabolized
[10]
  Bacterial Biotransformation: Compound metabolized
[11]
  Bacterial Biotransformation: Compound metabolized
[12]
  Bacterial Biotransformation: Compound NOT metabolized
[13]
  Bacterial Biotransformation: Compound metabolized
[14]
  Bacterial Biotransformation: Compound NOT metabolized
[15]
  Bacterial Biotransformation: Compound metabolized
[16]
  Bacterial Biotransformation: Compound NOT metabolized
[17]
  Bacterial Biotransformation: Compound metabolized
[18]
  Bacterial Biotransformation: Compound metabolized
[19]
  Bacterial Biotransformation: Compound NOT metabolized
[20]
  Bacterial Biotransformation: Compound NOT metabolized

## COc1cc2c(c(OC)c1OC)-c1ccc(OC)c(=O)cc1[C@@H](NC(C)=O)CC2 [COLCHICINE]
[1]
  Bacterial Biotransformation: Compound metabolized
[2]
  Bacterial Biotransformation: Compound metabolized
[3]
  Bacterial Biotransformation: Compound NOT metabolized
[4]
  Bacterial Biotransformation: Compound metabolized
[5]
  Bacterial Biotransformation: Compound NOT metabolized
[6]
  Bacterial Biotransformation: Compound metabolized
[7]
  Bacterial Biotransformation: Compound NOT metabolized
[8]
  Bacterial Biotransformation: Compound metabolized
[9]
  Bacterial Biotransformation: Compound NOT metabolized
[10]
  Bacterial Biotransformation: Compound metabolized
[11]
  Bacterial Biotransformation: Compound NOT metabolized
[12]
  Bacterial Biotransformation: Compound metabolized
[13]
  Bacterial Biotransformation: Compound metabolized
[14]
  Bacterial Biotransformation: Compound metabolized
[15]
  Bacterial Biotransformation: Compound metabolized
[16]
  Bacterial Biotransformation: Compound NOT metabolized
[17]
  Bacterial Biotransformation: Compound metabolized
[18]
  Bacterial Biotransformation: Compound metabolized
[19]
  Bacterial Biotransformation: Compound NOT metabolized
[20]
  Bacterial Biotransformation: Compound NOT metabolized

## CC(=O)OCC(=O)[C@@]12N=C(C)O[C@@H]1C[C@H]1[C@@H]3CCC4=CC(=O)C=C[C@]4(C)[C@H]3[C@@H](O)C[C@@]12C [DEFLAZACORT]
[1]
  Bacterial Biotransformation: Compound metabolized
[2]
  Bacterial Biotransformation: Compound metabolized
[3]
  Bacterial Biotransformation: Compound metabolized
[4]
  Bacterial Biotransformation: Compound metabolized
[5]
  Bacterial Biotransformation: Compound metabolized
[6]
  Bacterial Biotransformation: Compound metabolized
[7]
  Bacterial Biotransformation: Compound metabolized
[8]
  Bacterial Biotransformation: Compound metabolized
[9]
  Bacterial Biotransformation: Compound metabolized
[10]
  Bacterial Biotransformation: Compound metabolized
[11]
  Bacterial Biotransformation: Compound metabolized
[12]
  Bacterial Biotransformation: Compound metabolized
[13]
  Bacterial Biotransformation: Compound metabolized
[14]
  Bacterial Biotransformation: Compound metabolized
[15]
  Bacterial Biotransformation: Compound metabolized
[16]
  Bacterial Biotransformation: Compound metabolized
[17]
  Bacterial Biotransformation: Compound metabolized
[18]
  Bacterial Biotransformation: Compound metabolized
[19]
  Bacterial Biotransformation: Compound metabolized
[20]
  Bacterial Biotransformation: Compound metabolized
